Results reported in patent US9018388B2, “Pesticidal compositions and processes related thereto” (Dow AgroSciences LLC, priority 2012, dated 2015).

Tests used:
Format in all cases: in vivo
[1] = system: Green Peach Aphid (GPA) (Myzus persicae); assay: Bioassay on green peach aphid (GPA), foliar spray on cabbage seedlings; settings: 72 h, read-out: % Mortality GPA 200 ppm
Experimental: Bioassays on Green Peach Aphid (“GPA”) (Myzus persicae)
Certain molecules disclosed in this document were tested against GPA using procedures described in the following example. In the reporting of the results, the “GPA Rating Table” was used (See Table Section).
Cabbage seedlings grown in 3-inch pots, with 2-3 small (3-5 cm) true leaves, were used as test substrate. The seedlings were infested with 20-50 GPA (wingless adult and nymph stages) one day prior to chemical application. Four pots with individual seedlings were used for each treatment. Test compounds (2 mg) were dissolved in 2 mL of acetone/methanol (1:1) solvent, forming stock solutions of 1000 ppm test compound. The stock solutions were diluted 5× with 0.025% Tween 20 in H2O to obtain the solution at 200 ppm test compound. A hand-held aspirator-type sprayer was used for spraying a solution to both sides of […] leaves until runoff. Reference plants (solvent check) were sprayed with the diluent only containing 20% by volume of acetone/methanol (1:1) solvent. Treated plants were held in a holding room for three days at approximately 25° C. and ambient relative humidity (RH) prior to grading. Evaluation was conducted by counting the number of live aphids per plant under a microscope. Percent Control was measured by using Abbott's correction formula (W. S. Abbott, “A Method of Computing the Effectiveness of an Insecticide” J. Econ. Entomol. 18 (1925), pp. 265-267) as follows. Corrected%Control=100*(X−Y)/X • where • X=No. of live aphids on solvent check plants and • Y=No. of live aphids on treated plants
The results are indicated in the table entitled “Table 5: Biological Results” (See Table Section).

[2] = system: Beet Armyworm (BAW) (Spodoptera exigua); assay: Bioassay on beet armyworm (BAW), 128-well diet tray assay; settings: Beet armyworm, 50 μg/cm^2; for pest or weed control at 50 µg/cm2, 50 µg/cm2: Spodoptera exigua, read-out: % Mortality BAW 50 μg/cm^2
Method in brief: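 Second-instar Spodoptera exigua larvae, one to five per well, on artificial diet treated with 50 μg/cm^2 compound in 90:10 acetone-water and dried, eight wells per compound. Held at 25 °C, 14:10 light-dark for five to seven days; percent mortality averaged over wells.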

[3] = system: Corn Earworm (CEW) (Helicoverpa zea); assay: Bioassay on corn earworm (CEW), 128-well diet tray assay; settings: Corn earworm, 50 μg/cm^2; for pest or weed control at 50 µg/cm2, 50 µg/cm2: Helicoverpa zea, read-out: % Mortality CEW 50 μg/cm^2
Method in brief: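 Second-instar Helicoverpa zea larvae (one to five per well) placed on artificial diet treated with 50 μg/cm^2 compound in 90:10 acetone-water, dried, eight wells per compound. Held at 25 °C, 14:10 light-dark, five to seven days; percent mortality averaged over wells.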

Structure (SMILES) | pest or weed control at 200 ppm [1] [%] | pest or weed control at 50 µg/cm2, 50 µg/cm2 [2] [%] | pest or weed control at 50 µg/cm2, 50 µg/cm2 [3] [%] | % Mortality BAW 50 μg/cm^2 [2] | % Mortality CEW 50 μg/cm^2 [3]
CCc1cccc(C)c1N1/C(=N/N=C/c2ccc(-c3ncn(-c4ccc(OC(F)(F)F)cc4)n3)cc2)SCC1C (centres unmarked) [Compound 156C] | 0 to 80 | 50 to 100 | 50 to 100 | – | –
O=C1CS/C(=N\N=C\c2ccc(-c3ncn(-c4ccc(OC(F)(F)F)cc4)n3)cc2)N1c1ccccc1-c1ccccc1 [Compound 96C] | 0 to 80 | 50 to 100 | 50 to 100 | – | –
Cc1cccc(C)c1N1C(=O)CS/C1=N\N=C\c1ccc(-c2ncn(-c3ccc(OC(F)(F)F)cc3)n2)cc1 [Compound 72C] | 0 to 80 | – | – | A (50-100) | A (50-100)
Cc1cccc(Cl)c1N1/C(=N/N=C/c2ccc(-c3ncn(-c4ccc(OC(F)(F)F)cc4)n3)cc2)SCC1C (centres unmarked) [Compound 158C] | 0 to 80 | 50 to 100 | 50 to 100 | – | –
FC(F)(F)Oc1ccc(-n2cnc(-c3ccc(/C=N/N=C4\SCCN4c4ccccc4C4CC4)cc3)n2)cc1 [Compound 145C] | 0 to 80 | 50 to 100 | 50 to 100 | – | –
COc1ccccc1N1C(=O)CS/C1=N\N=C\c1ccc(-c2ncn(-c3ccc(OC(F)(F)F)cc3)n2)cc1 [Compound 92C] | 0 to 80 | 50 to 100 | 50 to 100 | – | –
CC(C)c1ccccc1N1CCS/C1=N\N=C\c1ccc(-c2ncn(-c3ccc(OC(F)(F)F)cc3)n2)cc1 [Compound 132C] | 0 to 80 | 50 to 100 | 50 to 100 | – | –
Cc1cccc(C)c1/N=C(/N/N=C/c1ccc(-c2ncn(-c3ccc(OC(F)(F)F)cc3)n2)cc1)SCC(=O)NCCCN [Compound 66C] | 0 to 80 | 50 to 100 | 50 to 100 | – | –
COc1cc(C)c(/N=C(/N/N=C/c2ccc(-c3ncn(-c4ccc(OC(F)(F)F)cc4)n3)cc2)SCC(=O)O)c(C)c1.[Na+] [Compound 68C, 2-(((Z)-((4-methoxy-2,6-dimethylphenyl)imino)((E)-2-(4-(1-(4-(trifluoromethoxy)phenyl)-1H-1,2,4-triazol-3-yl)benzylidene)hydrazinyl)methyl)-thio)acetic acid sodium salt] | 0 to 80 | – | – | A (50-100) | A (50-100)
COc1cc(C)c(/N=C(/N/N=C/c2ccc(-c3ncn(-c4ccc(OC(F)(F)F)cc4)n3)cc2)SCOC(=O)CNC(=O)OCc2ccccc2)c(C)c1 [Compound 28C] | 0 to 80 | 50 to 100 | 50 to 100 | – | –
Cc1cccc(C)c1/N=C(/N/N=C/c1ccc(-c2ncn(-c3ccc(OC(F)(F)F)cc3)n2)cc1)SC/C=C/Br [Compound 4C] | 0 to 80 | 50 to 100 | 50 to 100 | – | –
Cc1ccccc1N1CCCS/C1=N\N=C\c1ccc(-c2ncn(-c3ccc(OC(F)(F)F)cc3)n2)cc1 [Compound 195C] | 0 to 80 | 50 to 100 | 50 to 100 | – | –
COc1ccc(N2CCCS/C2=N\N=C\c2ccc(-c3ncn(-c4ccc(OC(F)(F)F)cc4)n3)cc2)cc1 [Compound 202C] | 0 to 80 | 50 to 100 | 50 to 100 | – | –
CCOCC(=O)OCS/C(=N\c1c(C)cccc1C)N/N=C/c1ccc(-c2ncn(-c3ccc(OC(F)(F)F)cc3)n2)cc1 [Compound 22C] | 0 to 80 | 50 to 100 | 50 to 100 | – | –
FC(F)(F)Oc1ccc(-n2cnc(-c3ccc(/C=N/N=C4\SCCCN4c4c(Cl)cccc4C(F)(F)F)cc3)n2)cc1 [Compound 190C] | 0 to 80 | 50 to 100 | 50 to 100 | – | –
CC(C)c1ccccc1/N=C1\SCCCN1/N=C/c1ccc(-c2ncn(-c3ccc(C(F)(F)F)cc3)n2)cc1 [Compound 87C, (2Z,NE)-2-((2-isopropylphenyl)imino)-N-(4-(1-(4-(trifluoromethyl)phenyl)-1H-1,2,4-triazol-3-yl)benzylidene)-1,3-thiazinan-3-amine] | 0 to 80 | – | – | – | –

Structure (SMILES) | pest or weed control at 200 ppm [1] [%] | pest or weed control at 50 µg/cm2, 50 µg/cm2 [2] [%] | pest or weed control at 50 µg/cm2, 50 µg/cm2 [3] [%] | % Mortality BAW 50 μg/cm^2 [2] | % Mortality CEW 50 μg/cm^2 [3]
Cc1cccc(Cl)c1-n1c(C)cs/c1=N\N=C\c1ccc(-c2ncn(-c3ccc(OC(F)(F)F)cc3)n2)cc1 [Compound 174C] | 0 to 80 | 50 to 100 | 50 to 100 | – | –
Cc1cccc(C)c1/N=C(/N/N=C/c1ccc(-c2ncn(-c3ccc(OC(F)(F)F)cc3)n2)cc1)SCc1cccc2nsnc12 [Compound 14C] | 0 to 80 | 50 to 100 | 50 to 100 | – | –
Cc1cccc(C)c1/N=C(/N/N=C/c1ccc(-c2ncn(-c3ccc(OC(F)(F)F)cc3)n2)cc1)SCC(=O)O [Compound 47C] | 0 to 80 | 50 to 100 | 50 to 100 | – | –
Cc1cccc(C)c1/N=C(/N/N=C/c1ccc(-c2ncn(-c3ccc(OC(F)(F)F)cc3)n2)cc1)SCC(=O)NCCCNC(=O)OC(C)(C)C [Compound 58C] | 0 to 80 | 50 to 100 | 50 to 100 | – | –
COc1cc(C)c(/N=C(/N/N=C/c2ccc(-c3ncn(-c4ccc(OC(F)(F)F)cc4)n3)cc2)SCOC(=O)C(C)(C)C)c(C)c1 [Compound 40C] | 0 to 80 | 50 to 100 | 50 to 100 | – | –
CCOc1ccccc1N1CCS/C1=N\N=C\c1ccc(-c2ncn(-c3ccc(OC(F)(F)F)cc3)n2)cc1 [Compound 146C] | 0 to 80 | 50 to 100 | 50 to 100 | – | –
COc1cc(C)c(/N=C(/N/N=C/c2ccc(-c3ncn(-c4ccc(OC(F)(F)F)cc4)n3)cc2)SCC(=O)N2CCNCC2)c(C)c1 [Compound 65C] | 0 to 80 | 50 to 100 | 50 to 100 | – | –
Cc1cccc(C)c1-n1c(-c2cc(-c3ccc(Cl)cc3)no2)cs/c1=N\N=C\c1ccc(-c2ncn(-c3ccc(OC(F)(F)F)cc3)n2)cc1 [Compound 76C] | 0 to 80 | 50 to 100 | 50 to 100 | – | –
FC(F)(F)Oc1ccc(-n2cnc(-c3ccc(/C=N/N=C4\SCCCN4c4ccccc4-c4ccccc4)cc3)n2)cc1 [Compound 194C] | 0 to 80 | 50 to 100 | 50 to 100 | – | –
Cc1cccc(C)c1/N=C(/N/N=C/c1ccc(-c2ncn(-c3ccc(OC(F)(F)F)cc3)n2)cc1)SCOC(=O)C1CCCC1 [Compound 35C] | 0 to 80 | 50 to 100 | 50 to 100 | – | –
COc1ccc(C(C)/N=C(/N/N=C/c2ccc(-c3ncn(-c4ccc(OC(F)(F)F)cc4)n3)cc2)SCC(=O)O)cc1 (centres unmarked) [Compound 52C] | 0 to 80 | 0 to 50 | – | – | –
COc1ccc(C(C)/N=C(/N/N=C/c2ccc(-c3ncn(-c4ccc(OC(F)(F)F)cc4)n3)cc2)SCC(=O)O)cc1F (centres unmarked) [Compound 53C] | 0 to 80 | 0 to 50 | – | – | –
COc1cc(Cl)c(/N=C(/N/N=C/c2ccc(-c3ncn(-c4ccc(OC(F)(F)F)cc4)n3)cc2)SCOC(=O)C(C)C)c(Cl)c1 [Compound 34C] | 0 to 80 | – | – | – | –
CCOCC(=O)OCS/C(=N\c1c(Cl)cc(OC)cc1Cl)N/N=C/c1ccc(-c2ncn(-c3ccc(OC(F)(F)F)cc3)n2)cc1 [Compound 32C] | 0 to 80 | – | – | – | –
Cc1cc(C)c(N2/C(=N/N=C/c3ccc(-c4ncn(-c5ccc(OC(F)(F)F)cc5)n4)cc3)SCCC2C)c(C)c1 (centres unmarked) [Compound 218C] | – | 50 to 100 | 50 to 100 | – | –
COc1cc(C)c(/N=C(/N/N=C/c2ccc(-c3ncn(-c4ccc(OC(F)(F)F)cc4)n3)cc2)SCC(=O)NCCCN)c(C)c1 [Compound 64C] | – | 50 to 100 | 50 to 100 | – | –
